Measurements published in patent publication EP1627887A2, “Mouce trace amine associated receptors” (F.HOFFMANN-LA ROCHE AG, priority 2004, dated 2006).
Where two headings read alike, the source gives them in different places.

Key:
[1] = system: Mouse TAAR 1; experiment: cAMP Biotrak EIA functional assay in HEK293 cells stably expressing the receptor
Method: (§1) The amount of cAMP produced by HEK293 cells stably expressing the indicated receptor in response to stimulation by each of the listed compounds was measured using the cAMP Biotrak EIA System (Amersham). Shown are the EC50 values in µM (means of at least three independent experiments; EC50 values are calculated from experiments carried out with 12 concentrations each in duplicates evenly distributed in the range of 30 µM - 0.1 nM). The maximal response is represented as percentage of the maximal cAMP levels induced by p-TYR.
(§2) cAMP assay: cAMP was assayed using the cAMP Biotrak Enzymeimmunoassay (EIA) System from Amersham as described in the product manual, following the so-called Non-acetylation EIA procdure.
(§3) In the protocol the following minor modifications were introduced: After stimulation of HEK cells in 96 well plates the reaction was stopped by applying equal volume of pre cooled (-20°C) ethanol. Lysis of cells was not achieved by applying the lysis buffer supplied with the kit, but with transferring the 96 well plates to -80°C for a minimum of 6 hrs (up to several days). Thereafter the contents of the 96 well plates was dried at 50°C over night, and the material remaining in the 96 well plates was resuspended in 200 µl of the assay buffer (the buffer used for resuspending all reagents of the kit). The resuspension were assayed in serial dilutions in assay buffer.

[2] = system: Mouse TAAR 1
Method: as §1, §2, §3

Structure (SMILES)	EC50 [1] [nM]	Max ([1]; hek293 cells) [%]	EC50 [2] [nM]	Max ([1]; maximal response as percentage of the maximal cAMP levels induced by p-TYR, HEK293 cells stably expressing mTAAR1) [%]
CNCCc1ccc(O)cc1 [N-methyl-p-tyramine]	1020 ± 390	100	–	–
CNCCc1ccccc1 [N-methyl-β-PEA]	–	100	–	–
NCCc1c[nH]c2ccccc12 [TRY, tryptamine]	–	100	–	–
NCCc1ccc(O)cc1 [p-TYR, p-tyramine]	–	–	1370 ± 330	100
NCCc1ccccc1 [β-PEA, β-phenylethylamine]	–	100	–	–
